Values joined by “and” are separate entries in the source; they are usually repeats but may differ in a detail not shown here. Equal entries are not always repeated. “Also recorded” adds a separate entry of the source.
How the values were obtained:
SS patients = experiment: Routine clinical and laboratory (haematological and biological) data in SS patients with HC treatment
α-Hb = experiment: In vitro α-Hb pool measurement in haemolysate (capture on GST-AHSP affinity support); assay type: in vivo, human; conditions: Treated SS patients (HC), n=10, mean ± SD; ng free α-Hb per mg total subunits per mL of lysed RBCs
Description: (§1) We centrifuged 4 mL of whole blood from each subject for 5 min at 4° C., with blood samples processed within 2 h of collection. The plasma was gently removed, leaving 3 mm above the RBCs to retain the reticulocytes; the RBCs were washed with 0.15 M NaCl and then frozen at −80° C. They were thawed on ice and lysed with four volumes of cold distilled water, and incubated for 30 min at +4° C., before centrifugation at 16,000×g for 30 min at +4° C. The RBC lysate (haemolysate) was recovered as the supernatant and stored at −80° C.
The α-Hb pool was assessed for the RBC lysates of all subjects (SS patients and controls), by capturing α-Hb subunits on GST-AHSP bound to an affinity chromatography support, as previously described.^15

AHSP = experiment: Determination of AHSP concentration in haemolysates by sandwich ELISA; assay type: in vivo, human
Description: as §1
We used high-binding 96-well ELISA plates (COSTAR High Binding ELISA Plates, Corning Incorporated, Corning, NY, USA). Following each step, up to 3,3′,5,5′-tetramethylbenzidine (TMB) addition, the wells were washed three times with 300 μL DPBS-0.05% Tween-20 (DPBS-TWEEN® Tablets, Calbiochem, Millipore Corporation, Burlington, MA, USA). The wells were coated with 100 μL/well anti-Ahsp antibody (EPR12319, diluted 1:1000 in DPBS) as the capture antibody. After 2 h at 37° C., the wells were washed and blocked by incubation for 2 h at 37° C. with 300 μL blocking buffer (0.15% BSA in DPBS). The wells were washed and left to dry in air, covered with SealPlate and stored at 4° C.
Serial dilutions of recombinant AHSP stored in −80° C. were prepared (0.395 to 3 ng/mL) in blocking buffer and added to the plate in duplicate in each assay, for construction of the calibration curve. Diluted recombinant AHSP were added to the coated wells (100 μL/well) and the plates were incubated for 2 h at 37° C. The plates were washed and 100 μL of biotin-conjugated rabbit polyclonal anti-human recombinant Ahsp antibody (Met1-Ser102) (ABIN2615200, Antibodies-online Gmb, Aachen, Germany, diluted 1:255 in blocking buffer), used as the detecting antibody, were added to each well, and the plates were incubated for 1 h at 37° C. The plates were washed five times and the samples were then incubated with 100 μL/well streptavidin-HRP (DY998, R&D Systems, Minneapolis, MN, USA, diluted 1:100 in blocking buffer) for 20 min at 37° C. in the dark. Next steps, washes and incubations, were performed in the dark. The reaction was developed by adding 50 μL/well TMB as a substrate (1-Step™ Ultra TMB-ELISA, Thermo Fisher Scientific). The plates were incubated for 5-10 min, and the reaction was then stopped by adding 50 μL/well 1 N sulfuric acid. Absorbance was measured immediately, at 450 nm (A450), with a microplate reader (Eon™, BioTek Instruments Inc, Winooski, Vermont, USA).
A standard curve was generated with known concentrations and absorbances of the recombinant human AHSP, with the EON microplate reader and Gen5 software.
The haemolysates were diluted 1:1000 in blocking buffer and added (100 μL/well) to the plate coated with the capture antibody. The plates were incubated for 2 h at 37° C., washed and 100 μL of the detecting antibody were added to each well, and then the plates were incubated for 1 h at 37° C. The further procedure is the same as for the AHSP range described above. The AHSP concentrations of the diluted haemolysates were determined by comparison to the standard curve expressed as ng per mL by the microplate reader. All the concentrations of AHSP obtained are the means of four ELISAs. Finally, taking into account the 1000-fold dilution of haemolysates, the final concentrations are reported in μg AHSP per mL of haemolysate.
The inter-subject variabilities were determined by calculating the CVs for four independent measurements of biological AHSP in each haemolysate.

[1] = Treated SS patients (HC), n=10, mean ± SD
[2] = HC-treated SS patients, n=10, FIG. 1

NC(=O)NO [HC, hydroxycarbamide]
LDH (SS patients; Treated SS patients (HC), n = 9, mean ± SD): 403.2 ± 68.09 U/L
DRBCs (dense dehydrated RBCs, density > 1.110 g/mL) (SS patients; [1]): 4.3% and 4.3 ± 2.54%
Ferritin (SS patients; [1]): 333.2 ± 206.8 µg/L
Haematocrit (SS patients; [1]): 28.4 ± 4.74%
Hb (SS patients; [1]): 9.9 ± 1.58 g/dL
HbA2 (SS patients; [1]): 2.04 ± 0.53%
HbF (SS patients; [1]): 21.51% and 21.51 ± 5.36%
HbS (SS patients; [1]): 76.45 ± 4.9%
MCH (SS patients; [1]): 39.7 ± 4.76 pg
MCHC (SS patients; [1]): 34.8 ± 0.79 g/dL
MCHbF (% HbF × MCH) (SS patients; [1]): 8.69 ± 2.81 pg
MCHbS (% HbS × MCH) (SS patients; [1]): 30.22 ± 2.89 pg
MCV (SS patients; [1]): 114.3 ± 13.43 fL
Platelets (SS patients; [1]): 355.8 ± 125.5 ×10^9/L
RBC (SS patients; [1]): 2.42 ± 0.45 ×10^12/L
RDW (SS patients; [1]): 17 ± 2.26%
Reticulocytes (SS patients; [1]): 114.7 ± 45.87 ×10^9/L
Reticulocytes (%) (SS patients; [1]): 4.57 ± 1.79%
Total bilirubin (SS patients; [1]): 28.5 ± 14.18 µmol/L
WBC (SS patients; Treated SS patients (stable HC treatment for at least one year), n=10, mean ± SD): 6.88 ± 1.46 ×10^9/L
α-Hb pool (α-Hb): 162 ± 31 ppm
AHSP concentration, interquartile range (IQR) (AHSP; HC-treated SS patients, n=10): 1.26 to 1.76 µg/mL
AHSP concentration, maximum value (AHSP; [2]): 2.16 μg AHSP per mL of haemolysate
AHSP concentration, minimum value (AHSP; [2]): 1.18 μg AHSP per mL of haemolysate
Effect of HC treatment on AHSP concentration in RBCs (in words) (AHSP; HC-treated vs untreated SS patients, remained higher than in controls): significantly lower; also recorded: significantly decreased
Measured [AHSP], individual treated patients (AHSP; Individual HC-treated SS patients P13-P22, average of 3 or 4 independent measurements ± SD, haemolysate): 1.37 ± 0.17 µg/mL and 2.16 ± 0.29 µg/mL and 1.99 ± 0.26 µg/mL and 1.32 ± 0.13 µg/mL and 1.18 ± 0.21 µg/mL and 1.29 ± 0.23 µg/mL and 1.19 ± 0.28 µg/mL and 1.34 ± 0.15 µg/mL and 1.44 ± 0.17 µg/mL and 1.69 ± 0.15 µg/mL
Measured [AHSP], group mean (AHSP; Treated SS patients (HC), n=10, mean ± SD, RBC haemolysate): 1.50 ± 0.34 µg/mL

— US20240319209A1, “METHOD FOR QUANTIFYING AHSP PROTEIN AND ITS USE FOR PROGNOSING A HAEMOGLOBIN-RELATED DISORDER” (INSTITUT NATIONAL DE LA SANTÉ ET DE LA RECHERCHE MÉDICALE, priority 2021, published 2024)
